Patent publication US12083105B2, “Compositions and methods for treating adult-onset neuronal ceroid lipofuscinosis (Kufs disease)” (CORNELL UNIVERSITY, priority 2020, dated 2024)

Test system: CSPα^WT, CSPα^L115R and CSPα^L116Δ
Test: Fe—S cluster disruption of purified recombinant CSPα oligomers (SDS-PAGE, immunoblotting)
Format: biochemical
Conditions: purified recombinant proteins; 1 mM, 2 h at room temperature; FIG. 2B
Procedure: FIGS. 2A-2F show dissociation of CSPα ANCL mutant protein oligomers by acid treatment. […] Purified recombinant CSPα^WT, CSPα^L115R CSPα^L116Δ, and SSPα proteins were incubated with either 1 mM L-cysteine for 2 h at room temperature (+L-Cys) or 0.1 N HCl for 20 min at room temperature (+HCl). The proteins were separated by SDS-PAGE, and resultant gels were subjected to immunoblotting using anti-CSPα antibody. A representative immunoblot is shown. Key: Mono=monomer; Oligo=oligomers of higher mass than dimer. Mono=monomer; Oligo=oligomers; grey arrowheads=possible dimer and tetramer. […] The proteins were subjected to increasing trypsin concentrations (0, 0.01, 0.05, 0.1, and 1.0 mg/ml) for 20 min at 4° C., followed by immediate inhibition of trypsin with addition of phenylmethylsulfonyl fluoride (PMSF) to 1 mM. After proteolysis was stopped, CSPα oligomers were disrupted with 0.1 N HCl for 20 min at room temperature, followed by 10 min of boiling in Laemmli sample buffer. The resultant proteins were separated by SDS-PAGE, and subjected to immunoblotting using anti-CSPα antibody. […] The proteins were first incubated with 0.1 N HCl for 20 min at room temperature and then neutralized with 1 M sodium cacodylate to pH 7.0. Limited proteolysis was then performed using increasing trypsin concentrations (0, 0.01, 0.05, 0.1, and 1.0 mg/ml) for 20 min at 4° C. […]

SMILES: N[C@@H](CS)C(=O)O [L-cysteine]
- disassembly of oligomers of CSPα^WT, CSPα^L115R and CSPα^L116Δ: no significant effect
